Measurements taken from the kinase profiling compilation of Christmann-Franck et al. (2016).
“And” between values parts separate entries of the source, which are not always exact repeats. Equal entries are not always repeated.

Columns and labels:
Experiment in all cases: radiometric filter-binding kinase assay, Kinase HotSpot
Conditions in all cases: compound 0.5 µM; ATP 10 µM
[1] = target: GRK6 (human) (UniProt P43250)
[2] = target: CAMK1 (human) (UniProt Q14012)
[3] = target: MAPK11 (human) (UniProt Q15759)
[4] = target: MLTK (human) (UniProt Q9NYL2)
[5] = target: HIPK3 (human) (UniProt Q9H422)
[6] = target: AURKC (human) (UniProt Q9UQB9)
[7] = target: PRKCH (human) (UniProt P24723)
[8] = target: CSNK1E (human) (UniProt P49674)
[9] = target: DYRK1B (human) (UniProt Q9Y463)
[10] = target: STK33 (human) (UniProt Q9BYT3)
[11] = target: CSNK1G1 (human) (UniProt Q9HCP0)
[12] = target: NEK1 (human) (UniProt Q96PY6)
[13] = target: DYRK2 (human) (UniProt Q92630)
[14] = target: CSK (human) (UniProt P41240)
[15] = target: EPHA3 (human) (UniProt P29320)
[16] = target: CSNK2A2 (human) (UniProt P19784)
[17] = target: PRKG1 (human) (UniProt Q13976)
[18] = target: CDK9 CCNK (human) (UniProt O75909+P50750)
[19] = target: NEK11 (human) (UniProt Q8NG66)
[20] = target: DYRK1A (human) (UniProt Q13627)
[21] = target: MST1R (human) (UniProt Q04912)
[22] = target: PNCK (human) (UniProt Q6P2M8)
[23] = target: GRK5 (human) (UniProt P34947)
[24] = target: PRKCD (human) (UniProt Q05655)
[25] = target: SGK2 (human) (UniProt Q9HBY8)
[26] = target: CDK2 CCNA2 (human) (UniProt P24941+P20248)
[27] = target: JAK2 JH1 JH2 (human) (UniProt O60674)
[28] = target: MYLK2 (human) (UniProt Q9H1R3)
[29] = target: MAP3K5 (human) (UniProt Q99683)
[30] = target: VRK1 (human) (UniProt Q99986)
[31] = target: BRSK1 (human) (UniProt Q8TDC3)
[32] = target: TXK (human) (UniProt P42681)
[33] = target: MAPK9 (human) (UniProt P45984)
[34] = target: RPS6KA2 KD1 KD2 (human) (UniProt Q15349)
[35] = target: CDK3 CCNE1 (human) (UniProt Q00526+P24864)
[36] = target: EPHA1 (human) (UniProt P21709)
[37] = target: INSR (human) (UniProt P06213)
[38] = target: BMX (human) (UniProt P51813)
[39] = target: FLT1 (human) (UniProt P17948)
[40] = target: FGR (human) (UniProt P09769)
[41] = target: EPHB1 (human) (UniProt P54762)
[42] = target: MAP2K2 (human) (UniProt P36507)

Chain of MAPK9 (human) (P45984 whole entry, looked up): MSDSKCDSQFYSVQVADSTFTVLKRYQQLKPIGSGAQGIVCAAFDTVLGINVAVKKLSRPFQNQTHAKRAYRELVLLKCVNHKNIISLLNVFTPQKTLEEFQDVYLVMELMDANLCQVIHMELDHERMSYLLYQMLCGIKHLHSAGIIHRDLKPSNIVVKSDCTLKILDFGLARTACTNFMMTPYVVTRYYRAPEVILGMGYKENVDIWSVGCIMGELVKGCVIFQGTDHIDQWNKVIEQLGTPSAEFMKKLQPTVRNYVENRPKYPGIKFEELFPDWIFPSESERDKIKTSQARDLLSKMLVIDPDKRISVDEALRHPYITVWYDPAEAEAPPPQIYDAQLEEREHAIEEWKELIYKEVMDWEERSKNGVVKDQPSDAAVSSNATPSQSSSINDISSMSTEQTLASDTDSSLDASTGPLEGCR
Chain of GRK5 (human) (P34947 whole entry, looked up): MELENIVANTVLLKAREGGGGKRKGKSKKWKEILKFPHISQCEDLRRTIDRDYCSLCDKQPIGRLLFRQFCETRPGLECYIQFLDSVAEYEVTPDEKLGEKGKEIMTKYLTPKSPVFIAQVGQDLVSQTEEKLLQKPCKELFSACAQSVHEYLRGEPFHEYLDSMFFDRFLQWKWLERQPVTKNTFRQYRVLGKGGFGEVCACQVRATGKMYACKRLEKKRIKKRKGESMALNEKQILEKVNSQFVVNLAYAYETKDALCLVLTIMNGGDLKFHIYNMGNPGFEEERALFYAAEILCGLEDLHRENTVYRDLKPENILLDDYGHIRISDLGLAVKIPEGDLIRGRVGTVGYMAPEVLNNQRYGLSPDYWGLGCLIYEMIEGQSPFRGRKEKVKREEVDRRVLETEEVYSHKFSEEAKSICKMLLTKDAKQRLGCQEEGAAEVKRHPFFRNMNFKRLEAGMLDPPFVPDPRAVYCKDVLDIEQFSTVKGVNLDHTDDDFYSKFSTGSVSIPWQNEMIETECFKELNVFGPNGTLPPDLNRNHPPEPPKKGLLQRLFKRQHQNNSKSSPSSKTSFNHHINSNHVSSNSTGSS
Chain of JAK2 JH1 JH2 (human) (O60674 whole entry, looked up): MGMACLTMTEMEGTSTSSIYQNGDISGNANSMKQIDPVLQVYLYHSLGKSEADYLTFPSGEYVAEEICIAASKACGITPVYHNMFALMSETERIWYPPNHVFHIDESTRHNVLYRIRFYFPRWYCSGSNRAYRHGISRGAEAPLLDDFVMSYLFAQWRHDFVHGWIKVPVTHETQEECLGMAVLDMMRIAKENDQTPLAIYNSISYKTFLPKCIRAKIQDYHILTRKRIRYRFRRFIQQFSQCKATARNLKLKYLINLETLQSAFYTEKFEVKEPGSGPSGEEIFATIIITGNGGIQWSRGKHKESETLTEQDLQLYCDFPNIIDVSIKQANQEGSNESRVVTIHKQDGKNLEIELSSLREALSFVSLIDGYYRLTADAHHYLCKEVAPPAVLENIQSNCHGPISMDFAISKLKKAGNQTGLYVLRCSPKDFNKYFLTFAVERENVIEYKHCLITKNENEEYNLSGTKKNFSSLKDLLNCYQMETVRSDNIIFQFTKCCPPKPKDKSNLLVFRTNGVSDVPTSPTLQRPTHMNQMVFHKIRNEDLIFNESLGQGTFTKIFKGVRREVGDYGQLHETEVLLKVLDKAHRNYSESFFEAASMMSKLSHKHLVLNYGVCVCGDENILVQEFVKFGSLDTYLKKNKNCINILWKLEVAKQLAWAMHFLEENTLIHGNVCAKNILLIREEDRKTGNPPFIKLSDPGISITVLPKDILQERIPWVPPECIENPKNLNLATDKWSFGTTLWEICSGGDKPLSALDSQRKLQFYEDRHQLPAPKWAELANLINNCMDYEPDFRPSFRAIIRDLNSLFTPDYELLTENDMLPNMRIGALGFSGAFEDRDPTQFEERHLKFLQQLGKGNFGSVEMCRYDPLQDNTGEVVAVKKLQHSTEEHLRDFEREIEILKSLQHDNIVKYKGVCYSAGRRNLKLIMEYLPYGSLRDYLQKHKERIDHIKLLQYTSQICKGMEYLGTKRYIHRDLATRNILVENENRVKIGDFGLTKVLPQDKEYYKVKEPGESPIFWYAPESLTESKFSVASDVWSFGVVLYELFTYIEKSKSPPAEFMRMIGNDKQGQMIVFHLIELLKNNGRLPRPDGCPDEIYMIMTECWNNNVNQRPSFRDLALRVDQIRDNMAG
Chain of HIPK3 (human) (Q9H422 whole entry, looked up): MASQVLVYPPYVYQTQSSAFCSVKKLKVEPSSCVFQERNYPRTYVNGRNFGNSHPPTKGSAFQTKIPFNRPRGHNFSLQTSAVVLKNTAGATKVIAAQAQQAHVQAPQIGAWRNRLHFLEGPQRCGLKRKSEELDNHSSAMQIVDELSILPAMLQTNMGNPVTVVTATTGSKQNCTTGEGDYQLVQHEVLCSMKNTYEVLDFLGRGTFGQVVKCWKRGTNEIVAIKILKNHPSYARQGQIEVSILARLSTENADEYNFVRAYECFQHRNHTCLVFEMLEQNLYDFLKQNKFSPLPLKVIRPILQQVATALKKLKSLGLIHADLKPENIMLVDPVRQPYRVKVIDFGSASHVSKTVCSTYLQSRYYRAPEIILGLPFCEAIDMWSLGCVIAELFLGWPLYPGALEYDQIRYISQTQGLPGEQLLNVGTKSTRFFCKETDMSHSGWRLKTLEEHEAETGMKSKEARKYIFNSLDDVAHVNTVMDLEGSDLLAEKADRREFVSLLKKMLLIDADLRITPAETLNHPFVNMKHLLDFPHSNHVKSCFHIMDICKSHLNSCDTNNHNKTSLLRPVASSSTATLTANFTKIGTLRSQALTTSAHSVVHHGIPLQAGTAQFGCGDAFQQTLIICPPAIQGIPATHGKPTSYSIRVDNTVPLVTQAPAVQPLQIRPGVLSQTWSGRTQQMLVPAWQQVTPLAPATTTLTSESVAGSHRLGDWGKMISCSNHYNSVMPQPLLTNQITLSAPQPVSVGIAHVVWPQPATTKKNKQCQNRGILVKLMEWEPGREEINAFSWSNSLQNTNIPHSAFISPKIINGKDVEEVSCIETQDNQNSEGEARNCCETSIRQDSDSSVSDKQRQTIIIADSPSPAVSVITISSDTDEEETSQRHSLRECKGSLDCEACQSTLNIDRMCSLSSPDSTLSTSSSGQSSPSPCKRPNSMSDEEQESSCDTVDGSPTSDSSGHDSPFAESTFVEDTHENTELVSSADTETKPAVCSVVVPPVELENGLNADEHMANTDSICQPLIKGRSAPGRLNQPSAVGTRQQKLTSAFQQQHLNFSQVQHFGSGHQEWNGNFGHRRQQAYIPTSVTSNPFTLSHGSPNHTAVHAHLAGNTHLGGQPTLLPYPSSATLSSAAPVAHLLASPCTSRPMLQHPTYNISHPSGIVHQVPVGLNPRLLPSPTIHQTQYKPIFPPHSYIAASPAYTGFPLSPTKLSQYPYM
Chain of MAPK11 (human) (Q15759 whole entry, looked up): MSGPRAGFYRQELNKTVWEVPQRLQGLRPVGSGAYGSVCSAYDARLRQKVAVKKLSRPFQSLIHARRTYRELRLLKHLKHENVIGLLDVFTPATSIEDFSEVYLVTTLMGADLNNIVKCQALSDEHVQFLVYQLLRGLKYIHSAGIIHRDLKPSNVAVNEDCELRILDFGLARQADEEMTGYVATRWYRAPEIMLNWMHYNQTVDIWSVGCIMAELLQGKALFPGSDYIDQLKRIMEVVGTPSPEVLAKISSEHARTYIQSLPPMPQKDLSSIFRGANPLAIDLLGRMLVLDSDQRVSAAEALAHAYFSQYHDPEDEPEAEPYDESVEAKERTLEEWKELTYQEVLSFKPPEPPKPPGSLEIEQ
Chain of MLTK (human) (Q9NYL2 whole entry, looked up): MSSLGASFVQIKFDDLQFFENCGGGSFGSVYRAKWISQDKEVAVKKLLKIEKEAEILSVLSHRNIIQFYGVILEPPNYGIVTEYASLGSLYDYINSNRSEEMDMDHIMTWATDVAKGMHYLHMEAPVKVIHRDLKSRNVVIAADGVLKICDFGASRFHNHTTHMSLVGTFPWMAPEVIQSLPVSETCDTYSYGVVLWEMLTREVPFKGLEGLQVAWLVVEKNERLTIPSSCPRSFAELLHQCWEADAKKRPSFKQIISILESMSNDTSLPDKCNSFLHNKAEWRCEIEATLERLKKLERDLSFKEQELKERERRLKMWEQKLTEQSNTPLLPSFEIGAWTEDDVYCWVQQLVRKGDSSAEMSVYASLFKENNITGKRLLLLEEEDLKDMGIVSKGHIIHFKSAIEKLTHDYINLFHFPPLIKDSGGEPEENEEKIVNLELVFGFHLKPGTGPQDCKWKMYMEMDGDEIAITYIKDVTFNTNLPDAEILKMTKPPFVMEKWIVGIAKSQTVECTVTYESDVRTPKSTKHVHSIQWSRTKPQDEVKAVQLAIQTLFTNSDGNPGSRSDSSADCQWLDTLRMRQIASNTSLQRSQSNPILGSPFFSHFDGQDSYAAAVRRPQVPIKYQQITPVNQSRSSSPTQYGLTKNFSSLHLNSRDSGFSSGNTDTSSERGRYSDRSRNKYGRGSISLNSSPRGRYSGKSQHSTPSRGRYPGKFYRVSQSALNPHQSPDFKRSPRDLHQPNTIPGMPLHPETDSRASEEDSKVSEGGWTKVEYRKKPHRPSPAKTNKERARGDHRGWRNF
Chain of FGR (human) (P09769 whole entry, looked up): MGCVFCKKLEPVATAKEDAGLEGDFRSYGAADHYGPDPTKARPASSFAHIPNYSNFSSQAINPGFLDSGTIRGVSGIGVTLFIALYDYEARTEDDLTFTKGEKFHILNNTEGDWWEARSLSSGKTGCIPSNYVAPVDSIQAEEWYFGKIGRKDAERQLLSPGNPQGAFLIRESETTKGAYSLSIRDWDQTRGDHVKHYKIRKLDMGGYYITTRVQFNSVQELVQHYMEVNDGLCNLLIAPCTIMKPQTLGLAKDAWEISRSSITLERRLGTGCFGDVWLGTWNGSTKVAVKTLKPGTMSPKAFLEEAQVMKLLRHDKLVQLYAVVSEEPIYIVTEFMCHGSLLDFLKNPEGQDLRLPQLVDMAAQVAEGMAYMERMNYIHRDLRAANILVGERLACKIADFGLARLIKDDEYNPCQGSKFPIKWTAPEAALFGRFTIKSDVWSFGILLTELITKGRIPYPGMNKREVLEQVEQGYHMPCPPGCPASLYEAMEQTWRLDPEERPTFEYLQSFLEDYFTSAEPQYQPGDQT

COc1ccc2c(c1)c(C1=C(c3c[nH]c4ccccc34)C(=O)NC1=O)cn2CCCN(C)C
residual activity [1]: 96.2%
residual activity [2]: 90.2%
residual activity [3]: 96.7%
residual activity [4]: 95.9%
residual activity [5]: 74.1%
residual activity [6]: 90.4%
residual activity [7]: 6.85%
residual activity [8]: 86.4%
residual activity [9]: 80%
residual activity [10]: 56.2%
residual activity [11]: 84.1%
residual activity [12]: 94.7%
residual activity [13]: 92.4%
residual activity [14]: 84%
residual activity [15]: 94.1%
residual activity [16]: 99.3%
residual activity [17]: 79.4% and 99.5%
residual activity [18]: 54.6%
residual activity [19]: 91.6%
residual activity [20]: 84.7%
residual activity [21]: 91.3%
residual activity [22]: 103%
residual activity [23]: 114%
residual activity [24]: 1.67%
residual activity [25]: 92.6%
residual activity [26]: 112%
residual activity [27]: 97.5%
residual activity [28]: 96%
residual activity [29]: 95.1%
residual activity [30]: 76.7%
residual activity [31]: 81.9%
residual activity [32]: 82.8%
residual activity [33]: 86.1%
residual activity [34]: 5.46%
residual activity [35]: 78.8%
residual activity [36]: 76.2%
residual activity [37]: 94.1%
residual activity [38]: 96.3%
residual activity [39]: 22%
residual activity [40]: 107%
residual activity [41]: 91.7%
residual activity [42]: 103%

COc1cc2ncnc(Nc3ccc(Oc4ccccc4)cc3)c2cc1OC
residual activity [1]: 99.6%
residual activity [2]: 105%
residual activity [3]: 105%
residual activity [4]: 95.2%
residual activity [5]: 103%
residual activity [6]: 93.9%
residual activity [7]: 87.3%
residual activity [8]: 100%
residual activity [9]: 97%
residual activity [10]: 96.3%
residual activity [11]: 90%
residual activity [12]: 101%
residual activity [13]: 104%
residual activity [14]: 18.8%
residual activity [15]: 101%
residual activity [16]: 98.2%
residual activity [17]: 92.5% and 93.6%
residual activity [18]: 96.7%
residual activity [19]: 74.8%
residual activity [20]: 84.6%
residual activity [21]: 95.7%
residual activity [22]: 97.7%
residual activity [23]: 97.4%
residual activity [24]: 96.8%
residual activity [25]: 113%
residual activity [26]: 100%
residual activity [27]: 95.6%
residual activity [28]: 101%
residual activity [29]: 107%
residual activity [30]: 98.2%
residual activity [31]: 98.7%
residual activity [32]: 78%
residual activity [33]: 99%
residual activity [34]: 98%
residual activity [35]: 98.5%
residual activity [36]: 95.6%
residual activity [37]: 88.8%
residual activity [38]: 76.1%
residual activity [39]: 79.8%
residual activity [40]: 8.91%
residual activity [41]: 108%
residual activity [42]: 105%

O=C1C(Cl)=C(N2C(=O)CCC2=O)C(=O)c2ccccc21
residual activity [1]: 98.5%
residual activity [2]: 98.3%
residual activity [3]: 105%
residual activity [4]: 97.9%
residual activity [5]: 112%
residual activity [6]: 97.9%
residual activity [7]: 93.1%
residual activity [8]: 102%
residual activity [9]: 103%
residual activity [10]: 91.5%
residual activity [11]: 147%
residual activity [12]: 90%
residual activity [13]: 98.6%
residual activity [14]: 79.5%
residual activity [15]: 105%
residual activity [16]: 100%
residual activity [17]: 104% and 97.8%
residual activity [18]: 97.2%
residual activity [19]: 101%
residual activity [20]: 99.1%
residual activity [21]: 94.5%
residual activity [22]: 100%
residual activity [23]: 91.5%
residual activity [24]: 97.8%
residual activity [25]: 99.5%
residual activity [26]: 109%
residual activity [27]: 104%
residual activity [28]: 98.1%
residual activity [29]: 99.1%
residual activity [30]: 92.4%
residual activity [31]: 96.9%
residual activity [32]: 95.5%
residual activity [33]: 93.6%
residual activity [34]: 104%
residual activity [35]: 102%
residual activity [36]: 97.6%
residual activity [37]: 105%
residual activity [38]: 103%
residual activity [39]: 87.8%
residual activity [40]: 102%
residual activity [41]: 97.2%
residual activity [42]: 106%

CN(C)CCCn1cc(C2=C(c3c[nH]c4ccccc34)C(=O)NC2=O)c2ccccc21
residual activity [1]: 72%
residual activity [2]: 82.7%
residual activity [3]: 96.1%
residual activity [4]: 93.1%
residual activity [5]: 102%
residual activity [6]: 84.7%
residual activity [7]: 7.67%
residual activity [8]: 96.3%
residual activity [9]: 76%
residual activity [10]: 62.9%
residual activity [11]: 99.1%
residual activity [12]: 92.5%
residual activity [13]: 111%
residual activity [14]: 97%
residual activity [15]: 93%
residual activity [16]: 92%
residual activity [17]: 38.3% and 59.3%
residual activity [18]: 60.3%
residual activity [19]: 104%
residual activity [20]: 54.7%
residual activity [21]: 109%
residual activity [22]: 106%
residual activity [23]: 71.6%
residual activity [24]: 4.73%
residual activity [25]: 74.4%
residual activity [26]: 85.2%
residual activity [27]: 93.9%
residual activity [28]: 73.9%
residual activity [29]: 90.2%
residual activity [30]: 95.5%
residual activity [31]: 76.9%
residual activity [32]: 107%
residual activity [33]: 98.7%
residual activity [34]: 1.4%
residual activity [35]: 93.2%
residual activity [36]: 89.9%
residual activity [37]: 88.9%
residual activity [38]: 101%
residual activity [39]: 78.1%
residual activity [40]: 90.9%
residual activity [41]: 87.4%
residual activity [42]: 98.9%
